{"source": "patent US5045190A", "about": "“Chromatography apparatus” (priority 1990, dated 1991)", "molecules": {"B1": {"name": "trypsin: bovine trypsin (twice recrystallized) (protein, UniProt P00760 24-246, looked up)", "Serine protease 1": "IVGGYTCGANTVPYQVSLNSGYHFCGGSLINSQWVVSAAHCYKSGIQVRLGEDNINVVEGNEQFISASKSIVHPSYNSNTLNNDIMLIKLKSAASLNSRVASISLPTSCASAGTQCLISGWGNTKSSGTSYPDVLKCLKAPILSDSSCKSAYPGQITSNMFCAGYLEGGKDSCQGDSGGPVVCSGKLQGIVSWGSGCAQKNKPGVYTKVCNYVSWIKQTIASN"}}, "key": {"[1]": {"target": "T1, horse serum cholinesterase (Equus caballus, UniProt P81908)", "T1 construct": "purchased Sigma Chemicals Co; host or cells: horse serum", "T1 sequence (P81908 whole entry)": "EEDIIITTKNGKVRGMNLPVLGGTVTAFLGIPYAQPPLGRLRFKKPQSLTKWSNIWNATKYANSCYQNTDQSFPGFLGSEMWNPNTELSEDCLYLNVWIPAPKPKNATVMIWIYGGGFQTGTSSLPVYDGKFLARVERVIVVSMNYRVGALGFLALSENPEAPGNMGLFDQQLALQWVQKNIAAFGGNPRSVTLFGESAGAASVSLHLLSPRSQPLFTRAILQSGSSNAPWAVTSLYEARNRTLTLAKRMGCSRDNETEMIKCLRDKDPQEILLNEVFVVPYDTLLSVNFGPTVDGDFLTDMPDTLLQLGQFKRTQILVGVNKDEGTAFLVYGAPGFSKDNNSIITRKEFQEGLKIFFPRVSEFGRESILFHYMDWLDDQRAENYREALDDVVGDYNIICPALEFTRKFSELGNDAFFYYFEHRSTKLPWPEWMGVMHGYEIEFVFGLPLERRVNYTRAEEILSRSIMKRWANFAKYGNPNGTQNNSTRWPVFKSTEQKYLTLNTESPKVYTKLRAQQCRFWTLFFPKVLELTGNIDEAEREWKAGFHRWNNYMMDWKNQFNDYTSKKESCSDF", "experiment": "Inhibition of horse (serum) cholinesterase, Ki by the method of Dixon", "assay_type": "biochemical", "source_text": "E. coli beta-galactosidase, chromatographically purified, was obtained from Worthington Biochemicals. P-aminophenyl-beta-D-thiogalactopyranoside (APGP) was purchased from Calbiochem. O-nitrophenyl-beta-D-galactopyranoside (ONPG), bovine trypsin (twice recrystallized), DL-benzoylarginine-p-nitroanilide (DL-BAPNA), p-aminobenzamidine (PAB), cholinesterase (affinity purified from horse serum), procainamide, dithiobisnitrobenzoate, and butyrylthiocholine were obtained from Sigma Chemicals Co. Tresyl chloride (2,2,2-trifluoroethanesulfonyl chloride) was obtained from Fluka and ethyl-(dimethyl-aminopropyl)carbodiimide (EDC) from Aldrich. The surfactant Sandopan JA36 was obtained from Sandoz Chemicals and the surfactant octaethylene glycol n-hexadecyl ether (C16 E8) was obtained from Nikkol Chemicals Co. (Japan). The structures of these surfactants is as shown below: [drawing 1]\nThe molar extinction coefficient of C16 E8 -pyridinium at 259 nm is […] (by dry weight). The product final yield is 71.9%."}, "[2]": {"conditions": "reported pI; cited from earlier work"}, "[3]": {"experiment": "Stability of trypsin solution at 4 degrees Celsius (BAPNA activity assay)", "assay_type": "physicochemical", "conditions": "2.9 mg/ml in Buffer A, over three days", "experimental": "This example was conducted in accordance with Example 18 above. The activity of trypsin solutions were determined by a method similar to that described by Erlanger et al., Arch. Biochem. Biophys. 95, 271 (1961), using BAPNA as substrate. An aliquot (0.5 milliliter) of the trypsin solution to be assayed was diluted in 1.5 milliliters of 0.05 M Tris-HCl buffer, pH 8.15, containing 0.02 M CaCl2 in a 3.5 milliliter disposable polystyrene cuvette. A 100 microliter aliquot of a 10^-2 M solution of BAPNA in dimethylsulfoxide was then added to this solution. The rate of change in absorbance at 388 nm at 25 degrees Celsius was then measured in a Schimadzu UV 160 spectrophotometer. One unit of activity was defined as the amount of enzyme causing an absorbance change of 0.1 per minute under these conditions.\nA solution of trypsin (2.9 milligrams of protein per milliliter) was prepared in Buffer A and several activity assays were made over the course of three days to determine its stability at 4 degrees Celsius. […] In this case the eluted peaks were collected and assayed for enzymatic activity."}}}
{"molecule": "CCCCCCCCCCCCCCCCOCCOCCOCCOCCOCCOCCOCCOCC[n+]1ccccc1", "note": "[C16 E8 -pyridinium, N-(n-hexadecyloctaethoxy)pyridinium]", "values": [{"measurement": "Ki", "setting": "[1]; horse serum cholinesterase, method of Dixon, read-out: Ki toward horse serum cholinesterase", "result": 514, "unit": "nM"}, {"measurement": "inhibition of the enzymatic activity of horse cholinesterase", "setting": "[1]; surface active HPLC peak, retention time 127.5 minutes", "result": "significantly inhibits"}]}
{"molecule": "CCCCCCCCCCCCCCCCOCCOCCOCCOCCOCCOCCOCCOCCO", "note": "[Unmodified surfactant, octaethylene glycol n-hexadecyl ether, reference compound]", "values": [{"measurement": "effect on the activity of horse cholinesterase", "setting": "[1]; even at concentrations as high as 10^-3 M", "result": "does not have any effect"}]}
{"molecule": "Lysozyme: test protein, isoelectric point (pI) of 11.0", "values": [{"measurement": "isoelectric point (pI)", "setting": "[2]", "result": 11.0}]}
{"molecule": "B1", "values": [{"measurement": "loss in tryptic activity (stability of solution)", "setting": "[3]", "result": "No significant loss in tryptic activity was observed"}]}
